Data published in patent publication US20160158189A1, “SENSITIZATION OF CANCER CELLS TO APOPTOSIS INDUCTION BY FLAVAGLINES AND 5-HYDROXY-FLAVONES” (DEUTSCHES KREBSFORSCHUNGSZENTRUM, priority 2013, published 2016).

Tests used:
Colo-357 cells = test: Apoptotic cell death by DNA fragmentation, Colo-357; assay type: cell-based; details: 1 μM ABT-263, 48 h
Protocol: (§1) Wogonin (BIOTREND Chemicals AG, Wangen, Switzerland), apigenin, chrysin, luteolin and baicalein (Sigma, St. Louis, USA) were solved in dimethyl sulfoxide (DMSO; Roth, Karlsruhe, Germany) at a stock concentration of 50 mM. Cells were treated with different concentrations of different flavones or ABT-263 (Selleck Chemicals, Houston, USA) for 24 to 48 h. Apoptotic cell death was examined by analysis of DNA fragmentation as previously described 23 (Fas et al.,2006, Blood 108: 3700-6). Results are presented as % specific DNA fragmentation using the formula: (percentage of experimental apoptosis-percentage of spontaneous apoptosis)/(100-percentage of spontaneous apoptosis)×100.

[1] = tested on: breast cancer cell line MCF-7; test: Apoptotic cell death by DNA fragmentation, MCF-7; assay type: cell-based, human; details: 1 μM ABT-263, 48 h
Protocol: (§2) The human malignant cell lines used in this study are the T cell leukemic cell lines CEM, Molt-4 and Jurkat (J16), the HL cell line KM-H2, the cervix adenocarcinoma cell line HeLa, the melanoma cell line A375, the hepatocellular carcinoma cell line HepG2, the pancreatic carcinoma cell line MiaPaca, the breast cancer cell line MCF-7, the prostatic cancer cell line PC3 and the colon carcinoma cell line HCT116. All cells were cultured in RPMI 1640 or DMEM medium (GIBCO laboratories, Grand Island, USA), supplemented with 10% FCS, 100 Units/ml penicillin (GIBCO), 100 μg/m1 streptomycin (GIBCO) and 2 mM L-glutamine (GIBCO) at 37° C. and 5%. Wogonin (BIOTREND Chemicals AG, Wangen, Switzerland), apigenin, chrysin, luteolin and baicalein (Sigma, St. Louis, USA) were solved in dimethyl sulfoxide (DMSO; Roth, Karlsruhe, Germany) at a stock concentration of 50 mM. Cells were treated with different concentrations of different flavones or ABT-263 (Selleck Chemicals, Houston, USA) for 24 to 48 h. Apoptotic cell death was examined by analysis of DNA fragmentation as previously described 23 (Fas et al.,2006, Blood 108: 3700-6). Results are presented as % specific DNA fragmentation using the formula: (percentage of experimental apoptosis-percentage of spontaneous apoptosis)/(100-percentage of spontaneous apoptosis)×100.

[2] = tested on: proliferating normal peripheral blood T cells; test: Apoptotic cell death by DNA fragmentation, proliferating normal T cells; assay type: cell-based; details: human
Protocol: Normal T cells were isolated from peripheral blood of healthy donors and activated to proliferate as described in the Materials and Methods. The proliferating T cells were treated with different concentrations of ABT-263 in the absence or presence of wogonin as indicated. Apoptotic cell death was determined by DNA fragmentation. Results are presented as pooled data from four independent donors. (B) Proliferating normal T cells express higher levels of Mcl-1 and Bcl-2 than leukemic Jurkat and Molt-4 T cells. Total cell lysates of activated T cells from three healthy donors were compared with leukemic cells for the expression levels of Mcl-1, Bcl-2, Bcl-xL and Bcl-w. CDK6 is known to be over-expressed in many tumor cells and was used as a marker for malignant cells. Representative blots from two independent experiments are shown. […] Human platelets in 10% FCS were treated with different concentrations of ABT-263 in the absence or presence of wogonin as indicated. After 1 h treatment, apoptotic cell death was determine by staining with annexin V/FITC. Results are average of two independent assays.
Human peripheral blood T cells were prepared as described previously 23 and were more than 90% CD3 positive. For generation of proliferating T cells, freshly isolated T cells were cultured at 2×10^6 cells/ml and were activated with […] PHA overnight. Activated T cells were then washed three times and cultured for additional 5 days in the presence of 25 U/ml IL-2. Platelets were prepared as described in Vogler et al., 2011, Blood 117: 7145-54.
as §1, with “Results are presented as % specific DNA fragmentation using the formula: (percentage of experimental apoptosis-percentage of spontaneous apoptosis)/(100-percentage of spontaneous apoptosis)×100.” left out

human ALL RS4;11 = details: 100 mg/kg/day; cited from earlier work
Mcl-1 = test: Western blot analysis of Mcl-1 expression; assay type: cell-based, human; details: Jurkat and CEM with acquired ABT-263 resistance
Excerpt: (§3) For each sample, 1×10^7 cells were lysed as previously described. 23 Equal amounts of protein were separated on 5-13% SDS-PAGE depending on the molecular sizes of the proteins and blotted onto a nitrocellulose membrane (Amersham Biosciences, Little Chalfon, UK) as previously described. 23 The following antibodies were used: Bad, Bax, Bcl-xL, Bcl-w, XIAP from Cell Signaling Technology, Danvers, USA; Bcl-2 (sc-509) and Mcl-1 (sc-819) from Santa Cruz Biotechnology, Heidelberg, Germany; Tubulin and actin from Sigma, Saint Louis, USA.

[3] = tested on: prostatic cancer cell line PC3; test: Apoptotic cell death by DNA fragmentation, PC3; assay type: cell-based, human; details: 1 μM ABT-263, 48 h
Protocol: as §2

CEM tumors = test: CEM xenograft in immunodeficient mice; assay type: in vivo; details: Rag2-/-/Il2rg-/- mice, s.c. CEM; ABT-263 50 mg/kg p.o. and/or wogonin 50 mg/kg i.p.
Protocol: Immunodeficient mice (Rag2−/−/II2rg−/−) were implanted subcutaneously in the dorsal flank region with CEM (5×10^7 cells). After the tumors reached to approximate 35 mm3, tumor size matched mice were treated with ABT-263 (50 mg/kg, once in each third or fourth day) in the presence or absence of 50 mg/kg wogonin. ABT-263 was formulated according to the protocol previously described 9 and administered p.o. Wogonin dissolved in DMSO was diluted in sunflower oil and administered i.p. For combination studies, ABT-263 was given 2 h before wogonin. The control group was treated in an analogous manner with the vehicle. The tumor size was measured with a micrometer caliper two to three times weekly and the tumor volume (V) was calculated by the formula V=(width2×length)/2. All protocols using and maintaining animals were approved by the German Animal Protection Authority (Office Regierungsprasidium Karlsruhe) in Karlsruhe.

[4] = tested on: colon carcinoma cell line HCT116; test: Apoptotic cell death by DNA fragmentation, HCT116; assay type: cell-based, human; details: 1 μM ABT-263, 48 h
Protocol: as §2

melanoma cell line A375 = test: Apoptotic cell death by DNA fragmentation, A375; assay type: cell-based, human; details: 1 μM ABT-263, 48 h
Protocol: as §2

[5] = tested on: hepatocellular carcinoma cell line HepG2; test: Apoptotic cell death by DNA fragmentation, HepG2; assay type: cell-based, human; details: HepG3 (so in the source); 1 μM ABT-263, 48 h
Protocol: as §2

[6] = tested on: Hodgkin lymphoma (HL) cell line KM-H2; test: Apoptotic cell death by DNA fragmentation, KM-H2; assay type: cell-based, human; details: 1 μM ABT-263, 48 h
Protocol: as §2

[7] = tested on: ABT-263-resistant Jurkat (Jurkat-R); test: Apoptotic cell death by DNA fragmentation, ABT-263-resistant Jurkat; assay type: cell-based, human; details: Jurkat treated with increasing ABT-263 up to 10 μM, 3 months
Protocol: as §1

[8] = tested on: pancreatic carcinoma cell line MiaPaca; test: Apoptotic cell death by DNA fragmentation, MiaPaca; assay type: cell-based, human; details: 1 μM ABT-263, 48 h
Protocol: as §2

[9] = tested on: cervix adenocarcinoma cell line HeLa; test: Apoptotic cell death by DNA fragmentation, HeLa; assay type: cell-based, human; details: 1 μM ABT-263, 48 h
Protocol: as §2

[10] = tested on: ABT-263-resistant CEM (CEM-R); test: Apoptotic cell death by DNA fragmentation, ABT-263-resistant CEM; assay type: cell-based, human; details: CEM treated with increasing ABT-263 up to 1 μM, 2 months
Protocol: as §1

[11] = tested on: HTLV-1-associated ATL cell line MT-2; test: Apoptotic cell death by DNA fragmentation, MT-2; assay type: cell-based, human; details: ABT-263 with different concentrations of rocaglamide, 48 h
Protocol: as §1
(§4) To investigate whether rocaglamide could enhance the toxicity of ABT-263 on leukemic cells, leukemic T cell line Jurkat and the HTLV-1-associated ATL cell line MT-2 were treated with indicated amounts of ABT-263 in the absence or presence of different concentration of rocaglamide for 48 h. Apoptotic cell death was determined by DNA fragmentation.

Jurkat (J16) cells = test: Apoptotic cell death by DNA fragmentation, Jurkat; assay type: cell-based, human; details: Jurkat; ABT-263 with different concentrations of rocaglamide, 48 h
Protocol: as §2

[12] = tested on: caspase-8, caspase-3, PARP; test: Western blot of caspases and PARP; assay type: cell-based, human; details: Jurkat (J16); combination with ABT-263, 24 h
Excerpt: as §3, §4

Row | Compound | cell death (Colo-357 cells) | cell death [1] | sensitivity of proliferating normal T cells to ABT-263 [2] | tumor response (human ALL RS4;11) | Mcl-1 expression after long-term ABT-263 exposure (Mcl-1) | cell death [3] | tumor growth / tumor response (CEM tumors) | cell death [4] | cell death (melanoma cell line A375) | cell death [5] | cell death [6] | sensitivity to ABT-263 after long-term exposure [7] | cell death [8] | cell death [9] | sensitivity to ABT-263 after long-term exposure [10] | sensitization of ABT-263-induced apoptosis [11] | sensitization of ABT-263-induced apoptosis (Jurkat (J16) cells) | activities of caspase-8, caspase-3 and PARP cleavage [12]
1 | CC1(C)CCC(c2ccc(Cl)cc2)=C(CN2CCN(c3ccc(C(=O)NS(=O)(=O)c4ccc(N[C@H](CCN5CCOCC5)CSc5ccccc5)c(S(=O)(=O)C(F)(F)F)c4)cc3)CC2)C1 [ABT-263, (R)-4-(4-((4′-chloro-4,4-dimethyl-3,4,5,6-tetrahydro-[1,1′-biphenyl]-2-yl)methyl)piperazin-1-yl)--N-((4-((4-morpholino-1-(phenylthio)butan-2-yl)amino)-3-((trifluoromethyl)sulfonyl)phenyl)sulfonyl)benzamide] | less than 5% | less than 5% | higher resistance to ABT-263 compared to leukemic cells | complete tumor response rate | elevated Mcl-1 expression | less than 5% | no significant inhibition of tumor growth | 10-20% | 10-20% | 10-20% | less than 5% | resistant to ABT-263 | less than 5% | less than 5% | resistant to ABT-263 | – | – | –
2 | COc1ccc([C@@]23Oc4cc(OC)cc(OC)c4[C@]2(O)[C@H](O)[C@H](C(=O)N(C)C)[C@H]3c2ccccc2)cc1 [rocaglamide, (1R,2R,3S,3aR,8bS)-1,8b-dihydroxy-6,8-dimethoxy-3a-(4-methoxyphenyl)—N,N-dimethyl-3-phenyl-2,3-dihydro-1H-cyclopenta[b][1]benzofuran-2-carboxamide] | – | – | – | – | – | – | – | – | – | – | – | – | – | – | – | sensitized by rocaglamide in both leukemic cell lines in a dose-dependent manner | sensitized by rocaglamide in both leukemic cell lines in a dose-dependent manner | Significant enhancement of activities of caspase-8, caspase-3 and increase in PARP cleavage
